Test results as given in US20050245463A1, “Novel antiretroviral sulfolipids extracted from spirulinae, method for obtaining same, compositions containing same and use thereof as inhibitors of the hiv virus reverse transcriptase” (priority 2002, published 2005).
≈ marks a conversion by molar mass, not a printed value.

Columns and labels:
Type in all cases: biochemical
[1] = biological target: T1, DNA polymerase of HIV-1 reverse transcriptase (Human immunodeficiency virus type 1 group M subtype B, UniProt P03366); assay: Inhibition of the DNA polymerase of HIV-1 reverse transcriptase; conditions: for IC50: concentration that inhibits 50% of the initial enzymatic activity; for IC90: concentration that inhibits 90% of the initial enzymatic activity; for inhibitory activity towards the DNA polymerase of HIV-1 reverse transcriptase (in words): ranking among molecular species
T1 construct: The HIV-1 and HIV-2 reverse transcriptases are the hetero-dimers p.66/p.5 l and p.68/p.55, respectively; made in house; host or cells: E. coli
Method: (§1) The reverse transcriptases used in this study are the recombinant enzymes expressed in E. coli and purified from the bacterial extracts (16). The HIV-1 reverse transcriptase expression plasmid originates from the proviral isolate BH-10 (17), while the HIV-2 reverse transcriptase expression plasmid originates from the isolate pRod (18). The HIV-1 and HIV-2 reverse transcriptases are the hetero-dimers p.66/p.5 l and p.68/p.55, respectively.
(§2) The enzymatic tests are performed by the method of Loya et al. (19). The DNA polymerase activity is measured by monitoring the incorporation of […] into the product insoluble in trichloroacetic acid (TCA), in the presence of different concentrations of sulfolipids. The RNase-H activity is measured by measuring the delivery of the TCA-soluble product from the synthetic substrate [^3H]poly(rA)n.poly (dT)n. This substrate is prepared by the procedure of Hizi et al. (1991) (20). In all the inhibition experiments, the enzymes are preincubated for 5 min at 30° C. in the absence or presence of inhibitors at different concentrations. The enzymatic reactions are started by the addition of appropriate substrate at 37° C. for 30 min.
(§3) The residual enzymatic activity is calculated relative to the initial rates of the (linear) reaction observed in the absence of sulfolipids.
The concentration of inhibitors that leads to 50% inhibition of the enzymatic activities (IC50) is calculated from the curves of inhibition as a function of inhibitor (sulfolipid) concentration.
(§4) (a) One unit of DNA polymerase activity is the amount of enzyme which catalyzes the incorporation of one pmol of dNTP into the DNA product at 37° C. over 30 min under standard test conditions.

[2] = biological target: T2, RNase-H of HIV-1 reverse transcriptase (Human immunodeficiency virus type 1 group M subtype B, UniProt P03366); assay: Inhibition of the RNase-H of HIV-1 reverse transcriptase; conditions: for RNase-H % of initial enzymatic activity: 100 μM of each sulfolipid molecular species, residual activity as % of control without inhibitor; for inhibition of the RNase-H of HIV-1 reverse transcriptase (in words): ranking among molecular species
T2 construct: The HIV-1 and HIV-2 reverse transcriptases are the hetero-dimers p.66/p.5 l and p.68/p.55, respectively; made in house; host or cells: E. coli
Method: as §1, §2, §3
(b) One unit of RNase-H activity is the amount of enzyme which catalyzes the hydrolysis of one pmol of AMP at 37° C. over 30 min under standard test conditions.

[3] = biological target: T3, DNA polymerase activity of HIV-2 reverse transcriptase (Human immunodeficiency virus type 2 subtype A, UniProt P04584); assay: DNA polymerase activity of HIV-2 reverse transcriptase
T3 construct: The HIV-1 and HIV-2 reverse transcriptases are the hetero-dimers p.66/p.5 l and p.68/p.55, respectively; made in house; host or cells: E. coli
T3 sequence (P04584 613-1051): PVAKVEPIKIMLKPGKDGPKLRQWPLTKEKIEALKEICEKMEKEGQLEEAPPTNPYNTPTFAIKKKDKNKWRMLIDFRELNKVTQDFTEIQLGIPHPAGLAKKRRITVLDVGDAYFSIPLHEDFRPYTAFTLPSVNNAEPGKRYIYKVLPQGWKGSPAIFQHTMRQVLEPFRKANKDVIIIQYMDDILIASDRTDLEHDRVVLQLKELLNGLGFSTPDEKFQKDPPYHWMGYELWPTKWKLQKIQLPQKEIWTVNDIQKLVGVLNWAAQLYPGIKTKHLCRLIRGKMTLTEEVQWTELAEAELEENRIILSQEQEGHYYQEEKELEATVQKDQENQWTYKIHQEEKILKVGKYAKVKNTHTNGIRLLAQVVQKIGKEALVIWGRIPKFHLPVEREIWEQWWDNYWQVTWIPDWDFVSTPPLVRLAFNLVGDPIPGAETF
T3 sequence (P04584 613-1171): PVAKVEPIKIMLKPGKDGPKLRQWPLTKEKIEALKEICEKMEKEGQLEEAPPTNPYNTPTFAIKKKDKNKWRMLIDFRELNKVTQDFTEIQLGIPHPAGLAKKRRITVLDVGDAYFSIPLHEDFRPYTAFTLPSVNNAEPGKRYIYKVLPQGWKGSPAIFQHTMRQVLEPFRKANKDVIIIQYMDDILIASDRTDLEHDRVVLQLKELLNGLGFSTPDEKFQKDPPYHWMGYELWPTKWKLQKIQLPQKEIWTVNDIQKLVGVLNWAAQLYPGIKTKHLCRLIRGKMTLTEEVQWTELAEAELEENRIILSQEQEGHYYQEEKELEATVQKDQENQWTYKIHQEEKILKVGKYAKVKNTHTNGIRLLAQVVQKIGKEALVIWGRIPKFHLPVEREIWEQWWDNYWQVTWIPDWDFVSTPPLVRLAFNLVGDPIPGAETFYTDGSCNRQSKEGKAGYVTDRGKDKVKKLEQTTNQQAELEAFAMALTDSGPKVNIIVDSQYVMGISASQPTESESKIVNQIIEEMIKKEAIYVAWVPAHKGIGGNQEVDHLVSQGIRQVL
Method: as §1, §2, §3, §4

With `CCCCCCCCCCCCCCCC(=O)OCC(COC1OC(CS(=O)(=O)O)C(O)C(O)C1O)OC(=O)CCCCCCCCCCCCCCC` (stereo not shown) [C16:0/C16:0] the IC50 [1] was 133 µM, the IC90 [1] was 452 µg/mL (≈ 568 µM) and the “RNase-H % of initial enzymatic activity” value [2] was 47 + 4%. The “inhibition of the RNase-H of HIV-1 reverse transcriptase (in words)” value (“inhibition” below) [2] was “highest activities”.

In the case of `CCCCCCC=CCCCCCCCC(=O)OCC(COC1OC(CS(=O)(=O)O)C(O)C(O)C1O)OC(=O)CCCCCCCCCCCCCCC` (stereo not shown) [C16:1/C16:0], the IC50 [1] is reported as 110 µM, the IC90 [1] is reported as 302 µg/mL (≈ 381 µM) and the “RNase-H % of initial enzymatic activity” value [2] is reported as 42 + 3%. The “inhibition” value [2] was “highest activities”, the “Residual enzymatic activity (%)” value ([3]; 10.2 + 0.5 μg/ml) was 100 + 1% and the “Residual enzymatic activity (%)” value ([3]; 25.0 + 0.6 μg/ml) was 96 + 1%. The “Residual enzymatic activity (%)” value ([3]; 48.9 + 0.9 μg/ml) was 69 + 1%, the “Residual enzymatic activity (%)” value ([3]; 97.5 + 1.5 μg/ml) was 58 + 2% and the “Residual enzymatic activity (%)” value ([3]; 108.0 + 3.0 μg/ml) was 50 + 1%. The “Residual enzymatic activity (%)” value ([3]; 198.5 + 3.4 μg/ml) was 24 + 2%.

In the case of `CCCCCCCCC=CCCCCCCCC(=O)OCC(COC1OC(CS(=O)(=O)O)C(O)C(O)C1O)OC(=O)CCCCCCCCCCCCCCC` (stereo not shown) [C18:1/C16:0], the IC50 [1] is reported as 29.1 µM, the IC90 [1] is reported as 73.6 µg/mL (≈ 89.6 µM) and the “inhibitory activity towards the DNA polymerase of HIV-1 reverse transcriptase (in words)” value [1] is reported as “highest activities”. The “RNase-H % of initial enzymatic activity” value [2] was 64 + 6%, the “inhibition” value [2] was “highest activities” and the “inhibitory activity towards the DNA polymerase activity of HIV-2 reverse transcriptase (in words)” value [3] was “have an inhibitory activity”. The “Residual enzymatic activity (%)” value ([3]; 4.8 + 0.9 μg/ml) was 100 + 1%, the “Residual enzymatic activity (%)” value ([3]; 9.6 + 0.9 μg/ml) was 93 + 2% and the “Residual enzymatic activity (%)” value ([3]; 19.1 + 0.9 μg/ml) was 74 + 2%. For the same compound, the “Residual enzymatic activity (%)” value ([3]; 33.5 + 2.0 μg/ml) was 50 + 1%, the “Residual enzymatic activity (%)” value ([3]; 38.3 + 1.8 μg/ml) was 42 + 2% and the “Residual enzymatic activity (%)” value ([3]; 76.5 + 2.0 μg/ml) was 24 + 2%.

With `CCCCCCCCC=CCCCCCCCC(=O)OCC(COC1OC(CS(=O)(=O)O)C(O)C(O)C1O)OC(=O)CCCCCCCC=CCCCCCCCC` (stereo not shown) [C18:1/C18:1] the IC50 [1] was 23.7 µM, the IC90 [1] was 68.3 µg/mL (≈ 80.6 µM) and the “inhibitory activity towards the DNA polymerase of HIV-1 reverse transcriptase (in words)” value [1] was “highest activities”. For the same compound, the “RNase-H % of initial enzymatic activity” value [2] was 60 + 2%, the “inhibition” value [2] was “highest activities” and the “inhibitory activity towards the DNA polymerase activity of HIV-2 reverse transcriptase (in words)” value [3] was “the highest”. The “Residual enzymatic activity (%)” value ([3]; 4.0 + 0.5 μg/ml) was 100 + 1%, the “Residual enzymatic activity (%)” value ([3]; 8.0 + 0.6 μg/ml) was 92 + 1% and the “Residual enzymatic activity (%)” value ([3]; 16.0 + 0.7 μg/ml) was 70 + 2%. The “Residual enzymatic activity (%)” value ([3]; 26.1 + 1.8 μg/ml) was 50 + 1%, the “Residual enzymatic activity (%)” value ([3]; 36.0 + 1.0 μg/ml) was 35 + 1% and the “Residual enzymatic activity (%)” value ([3]; 71.9 + 1.0 μg/ml) was 22 + 2%.

For `CCCCCC=CCC=CCCCCCCCC(=O)OC(COC(=O)CCCCCCCC=CCCCCCCCC)COC1OC(CS(=O)(=O)O)C(O)C(O)C1O` (stereo not shown) [C18:1/C18:2], the IC50 [1] was 248 µM, the IC90 [1] was 628 µg/mL (≈ 743 µM) and the “RNase-H % of initial enzymatic activity” value [2] was 100%.

In the case of `CCCCCC=CCC=CCCCCCCCC(=O)OCC(COC1OC(CS(=O)(=O)O)C(O)C(O)C1O)OC(=O)CCCCCCCCCCCCCCC` (stereo not shown) [C18:2/C16:0], the IC50 [1] is reported as 92 µM, the IC90 [1] is reported as 281 µg/mL (≈ 344 µM) and the “inhibitory activity towards the DNA polymerase of HIV-1 reverse transcriptase (in words)” value [1] is reported as “highest activities”. The “RNase-H % of initial enzymatic activity” value [2] was 100%, the “inhibitory activity towards the DNA polymerase activity of HIV-2 reverse transcriptase (in words)” value [3] was “have an inhibitory activity” and the “Residual enzymatic activity (%)” value ([3]; 9.5 + 0.9 μg/ml) was 100 + 1%. The “Residual enzymatic activity (%)” value ([3]; 23.8 + 0.9 μg/ml) was 96 + 2%, the “Residual enzymatic activity (%)” value ([3]; 47.7 + 1.8 μg/ml) was 70 + 2% and the “Residual enzymatic activity (%)” value ([3]; 95.4 + 2.0 μg/ml) was 56 + 2%. The “Residual enzymatic activity (%)” value ([3]; 105.0 + 5.0 μg/ml) was 50 + 1% and the “Residual enzymatic activity (%)” value ([3]; 190.8 + 4.8 μg/ml) was 25 + 2%.

For `CCCCCC=CCC=CCCCCCCCC(=O)OCC(COC1OC(CS(=O)(=O)O)C(O)C(O)C1O)OC(=O)CCCCCCCC=CCCCCCCCC` (stereo not shown) [C18:2/C18:1], the IC50 [1] was 297 µM, the IC90 [1] was 753 µg/mL (≈ 891 µM) and the “RNase-H % of initial enzymatic activity” value [2] was 100%.

In the case of `CCCCCC=CCC=CCCCCCCCC(=O)OCC(COC1OC(CS(=O)(=O)O)C(O)C(O)C1O)OC(=O)CCCCCCCC=CCC=CCCCCC` (stereo not shown) [C18:2/C18:2], the IC50 [1] is reported as 331 µM, the IC90 [1] is reported as 840 µg/mL (≈ 996 µM) and the “RNase-H % of initial enzymatic activity” value [2] is reported as 100%.

For `CCCCCC=CCC=CCC=CCCCCC(=O)OCC(COC1OC(CS(=O)(=O)O)C(O)C(O)C1O)OC(=O)CCCCCCCCCCCCCCC` (stereo not shown) [γC18:3/C16:0], the IC50 [1] was 218 µM, the IC90 [1] was 533 µg/mL (≈ 652 µM) and the “RNase-H % of initial enzymatic activity” value [2] was 100%.
